Earlier results as cited in patent publication US5141290A, “Toothbrush” (Hamivreshet Brush Factory, priority 1990, dated 1992).

Test system: dental plaque

## [H]/N=C(\N/C(=N/[H])NCCCCCCNC(=N)NC(=N)Nc1ccc(Cl)cc1)Nc1ccc(Cl)cc1 [chlorhexidine]
Clinically tested, among chemical agents
  potential to inhibit the formation of plaque: has shown the greatest promise
In vivo
  plaque-reducing property: high plaque-reducing property
